Source: patent US20240368078A1, “ARYL HETEROCYCLIC COMPOUNDS AS Kv1.3 POTASSIUM SHAKER CHANNEL BLOCKERS” (D.E. SHAW RESEARCH, LLC, priority 2021, published 2024)

Target: Kv1.3 potassium channel (Homo sapiens (Human), UniProt P22001)
Assay: Kv1.3 potassium channel blocker activity, automated whole-cell patch clamp in CHO-K1 cells stably expressing Kv1.3
Assay type: cell-based
Settings: Patchliner patch clamp
Protocol: Example 21. Evaluation of Kv1.3 Potassium Channel Blocker Activities
This assay is used to evaluate the disclosed compounds' activities as Kv1.3 potassium channel blockers.
CHO-K1 cells stably expressing Kv1.3 were grown in DMEM containing 10% heat-inactivated FBS, 1 mM sodium pyruvate, 2 mM L-glutamine, and G418 (500 μg/ml). Cells were grown in culture flasks at 37° C. in a 5% C02-humidified incubator.
The cells were bathed in an extracellular solution containing 140 mM NaCl, 4 mM KCl, 2 mM CaCl2), 1 mM MgCl2, 5 mM glucose, 10 mM HEPES; pH adjusted to 7.4 with NaOH; 295-305 mOsm. The internal solution contained 50 mM KCl, 10 mM NaCl, 60 mM KF, 20 mM EGTA, 10 mM HEPES; pH adjusted to 7.2 with KOH; 285 mOsm. All compounds were dissolved in DMSO at 30 mM. Compound stock solutions were freshly diluted with external solution to concentrations of 30 nM, 100 nM, 300 nM, 1 μM, 3 μM, 10 μM, 30 μM and 100 μM. The highest content of DMSO (0.3%) was present in 100 μM.
The currents were evoked by applying 100 ms depolarizing pulses from −90 mV (holding potential) to +40 mV were applied with 0.1 Hz frequency. Control (compound-free) and compound pulse trains for each compound concentration applied contained 20 pulses. 10-second breaks were used between pulse trains (see Table A below).
Whole-cell current recordings and compound application were enabled by means of an automated patch clamp platform Patchliner (Nanion Technologies GmbH). EPC 10 patch clamp amplifier (HEKA Elektronik Dr. Schulze GmbH) along with Patchmaster software (HEKA Elektronik Dr. Schulze GmbH) was used for data acquisition. Data were sampled at 10 kHz without filtering. Passive leak currents were subtracted online using a P/4 procedure (HEKA Elektronik Dr. Schulze GmbH). Increasing compound concentrations were applied consecutively to the same cell without washouts in between. Total compound incubation time before the next pulse train was not longer than 10 seconds. Peak current inhibition was observed during compound equilibration.
AUC and peak values were obtained with Patchmaster (HEKA Elektronik Dr. Schulze GmbH). To determine IC50, the last single pulse in the pulse train corresponding to a given compound concentration was used. Obtained AUC and peak values in the presence of compound were normalized to control values in the absence of compound. Using Origin (OridinLab), IC50 was derived from data fit to Hill equation: Icompound/Icontrol=(100-A)/(1+([compound]/IC50)nH)+A, where IC50 value is the concentration at which current inhibition is half-maximal, [compound] is the applied compound concentration, A is the fraction of current that is not blocked and nH is the Hill coefficient.

Sequence of Kv1.3 potassium channel (P22001 whole entry): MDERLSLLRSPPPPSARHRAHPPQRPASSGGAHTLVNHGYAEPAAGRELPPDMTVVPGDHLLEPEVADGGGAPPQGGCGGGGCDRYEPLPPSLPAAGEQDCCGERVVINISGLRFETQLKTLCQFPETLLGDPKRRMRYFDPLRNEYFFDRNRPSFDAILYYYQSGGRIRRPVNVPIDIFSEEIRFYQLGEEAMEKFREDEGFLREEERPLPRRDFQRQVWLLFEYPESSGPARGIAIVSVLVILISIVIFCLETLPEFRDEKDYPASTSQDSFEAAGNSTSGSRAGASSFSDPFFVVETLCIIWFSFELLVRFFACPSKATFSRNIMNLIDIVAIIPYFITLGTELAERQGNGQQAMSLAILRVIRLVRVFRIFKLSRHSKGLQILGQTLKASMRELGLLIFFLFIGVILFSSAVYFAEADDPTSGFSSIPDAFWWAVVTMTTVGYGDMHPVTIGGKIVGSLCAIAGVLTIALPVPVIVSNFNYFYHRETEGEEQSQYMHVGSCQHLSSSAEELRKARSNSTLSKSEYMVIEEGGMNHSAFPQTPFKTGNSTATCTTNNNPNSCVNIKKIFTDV

Row | Structure (SMILES) | IC50 [µM]
1 | O=C(C[C@H]1CN[C@@H](c2c(O)ccc(Cl)c2Cl)C1)N1CCC(O)CC1 [Compound 57, 2-((3S,5R)-5-(2,3-dichloro-6-hydroxyphenyl)pyrrolidin-3-yl)-1-(4-hydroxypiperidin-1-yl)ethan-1-one] | < 1
2 | O=C(C[C@H]1CN[C@@H](c2c(O)ccc(Cl)c2Cl)C1)N1CC(CO)(CO)C1 [Compound 70, 1-(3,3-bis(hydroxymethyl)azetidin-1-yl)-2-((3S,5R)-5-(2,3-dichloro-6-hydroxyphenyl)pyrrolidin-3-yl)ethan-1-one] | < 1
3 | NC(=O)C[C@@H]1CN[C@@H](c2c(O)ccc(Cl)c2Cl)C1 [Compound 32, 2-[(3R,5R)-5-(2,3-dichloro-6-hydroxyphenyl)pyrrolidin-3-yl]acetamide] | < 1
4 | O=C(C[C@H]1CN[C@@H](c2c(O)ccc(Cl)c2Cl)C1)N1CCC[C@H](O)C1 [Compound 59, 2-((3S,5R)-5-(2,3-dichloro-6-hydroxyphenyl)pyrrolidin-3-yl)-1-((S)-3-hydroxypiperidin-1-yl)ethan-1-one] | < 1
5 | O=C(C[C@H]1CN[C@@H](c2c(O)ccc(Cl)c2Cl)C1)N1CC(CO)C1 [Compound 60, 2-((3S,5R)-5-(2,3-dichloro-6-hydroxyphenyl)pyrrolidin-3-yl)-1-(3-(hydroxymethyl)azetidin-1-yl)ethan-1-one] | < 1
6 | CC[C@@H](C(N)=O)[C@@H]1CN[C@@H](c2c(O)ccc(Cl)c2Cl)C1 (single isomer, unassigned) [Compound 73] | < 1
7 | C[C@@H](CO)NC(=O)C[C@H]1CN[C@@H](c2c(O)ccc(Cl)c2Cl)C1 [Compound 62, 2-((3S,5R)-5-(2,3-dichloro-6-hydroxyphenyl)pyrrolidin-3-yl)-N-((S)-1-hydroxypropan-2-yl)acetamide] | < 1
8 | NC(=O)[C@@H](C1CC1)[C@H]1CN[C@@H](c2c(O)ccc(Cl)c2Cl)C1 (single isomer, unassigned) [Compound 79] | < 1
9 | CC[C@H](C(N)=O)[C@@H]1CN[C@@H](c2c(O)ccc(Cl)c2Cl)C1 (single isomer, unassigned) [Compound 72] | < 1
10 | NC(=O)[C@H](C1CC1)[C@H]1CN[C@@H](c2c(O)ccc(Cl)c2Cl)C1 (single isomer, unassigned) [Compound 78] | < 0.1
11 | C[C@@]1(CC(N)=O)CN[C@@H](c2c(O)ccc(Cl)c2Cl)C1 [Compound 50, 2-[5R-(2,3-dichloro-6-hydroxyphenyl)-3-methylpyrrolidin-3-yl]acetamide] | < 1
12 | CC1(CO)CN(C(=O)C[C@H]2CN[C@@H](c3c(O)ccc(Cl)c3Cl)C2)C1 [Compound 69, 2-((3S,5R)-5-(2,3-dichloro-6-hydroxyphenyl)pyrrolidin-3-yl)-1-(3-(hydroxymethyl)-3-methylazetidin-1-yl)ethan-1-one] | < 1
13 | CC(C)(C(N)=O)[C@@H]1CN[C@@H](c2c(O)ccc(Cl)c2Cl)C1 [Compound 51, 2-[(3R,5R)-5-(2,3-dichloro-6-hydroxyphenyl)pyrrolidin-3-yl]-2-methylpropanamide] | < 1
